The values below come from publication PMC8750527 (Cancers, 2021).

For series [1], the system named is DAOY. Nature of the series: MTT assay, 48 h exposure, DAOY MB cells. It counts as cell-based, human. Particulars: Homo sapiens, Daoy; Table 1; MTT, 48 h exposure; mean ± SEM. The protocol:
HDF (3000 cells), C8-D1A (5000 cells), D458 (5000 cells), DAOY (2000 cells), HD-MB03 (10,000 cells) and CHLA-01-Med (10,000 cells) were seeded at an approximate confluency of 50% in 96-well plates (Corning Inc., Corning, NY, USA) in 100 µL medium per well. A range from 50 nM to 150 µM of every drug was tested. The effects of the antiangiogenic compounds were measured using a 3-[4,5-dimethylthiazol-2yl]-diphenyltetrazolium bromide (MTT) colorimetric assay (Sigma, Lyon, France) according to the manufacturer’s instructions. When applicable, IC50 was calculated using the nonlinear regression method of the Prism 5 software (Graphpad Software Inc., San Diego, CA, USA). […] An MTT assay was conducted as described above to assess the fitness of the cells.
(In general: Tetrazolium dyes change colour on reduction, which living cells bring about.)

For series [2], the system named is HDF. Briefly: Cell viability, propidium iodine incorporation, HDF. It counts as cell-based, human. Particulars: 48 h; axitinib, cabozantinib 5 µM, etoposide 1 µM. The protocol:
Cell viability assays were conducted using a propidium iodine incorporation technique with an ADAM-sHIT automated cell counter (NanoEnTek, Gyeonggi-do, Korea) according to the manufacturer’s protocol.

Series [3] relates to MB cells. Nature of the series: Proliferation index assay, MB cells. The series is classed as cell-based, human. Particulars: after 120 h; axitinib 5 µM, etoposide 1 µM. The method, then: DAOY, D458, D283, C8-D1A and HDF (30,000 cells per well) and HD-MB03 (50,000 cells per well) were seeded in 24-well plates for proliferation assays.
The subject of series [4] is HD-MB03. Nature of the series: Cumulative population doubling (CPD), HD-MB03. It counts as cell-based, human. Particulars: continuous treatment; axitinib 5 µM, etoposide 1 µM. The protocol:
(§1) Cumulative population doubling (CPD) was assessed as previously described. Briefly, depending on the cell line, a variable number of cells corresponding to about 30% confluency were seeded in triplicate in 60 mm diameter Petri dishes. […] The cells were harvested when the confluency reached about 90%, counted and plated again at a dilution of 1/20. CPD was calculated as previously described.

In series [5] the test system is C8-D1A. Briefly: Cumulative population doubling (CPD), C8-D1A. The series is classed as cell-based, murine. The method, then:
as §1

Series [6] relates to C8-D1A/HD-MB03 mixed spheroids. Nature of the series: 3D mixed spheroids of astrocytes and MB cells. The series is classed as cell-based. Particulars: 7 days; axitinib 5 µM or etoposide 1 µM. The method, then:
C8-D1A cells were stained with the green fluorescent probe neuro-DiO (cat. number 60015, Biotium, Fremont, CA, USA) according to the manufacturer’s protocol. C8-D1A-neuroDio cells (150,000) and HD-MB03-mCherry or DAOY-mCherry cells (50,000) were plated in 12-well plates. […] Fluorescence images of the cells were taken with a DMI400 inverted microscope (Leica Microsystemes SAS, Nanterre, France) equipped with a 40× objective and a Zyla 5.5 camera (Andor Technologies, Belfast, UK). The cells were then trypsinized and the number of both cell types was quantified using a Melody FACS (BD Biosciences, Frankton Lake, NJ, USA) with a 488 nm laser beam. Analysis of the FACS data was conducted with the Flowjo software (Tree Star Inc., Ashland, OR, USA).
Two thousand cells were seeded in ultralow-adhesion 96-well plates (Corning Inc., Corning, NY, USA). […] Pictures were taken with an AMG Evos microscope 40× objective (Thermo Fisher Scientific Inc, Waltham, MA, USA) and the spheroid areas were measured using the ImageJ software (NIH, Bethesda, MD, USA).

The subject of series [7] is 20-day-old Wistar rats. Nature of the series: Juvenile rat toxicity experiment. The following applies: 50 mg/kg daily, oral gavage, four weeks; female and male. The series is classed as in vivo. From the text:
The experiments were approved by Comité National Institutionnel d’Ethique pour l’Animal de Laboratoire (France). The rats were bled and the brains were recovered and flash-frozen at the end of the experiment.

Series [8] deals with human brain endothelial cells (BEC, hCMEC/D3). Nature of the series: MTT assay, brain endothelial cells. The following applies: after three days, 1, 5 and 25 µM tested. The series is classed as cell-based.
In series [9] the test system is barrier formed by BEC (hCMEC/D3). Nature of the series: In vitro BBB permeability assay (FITC-Dextran), BEC. The series is classed as cell-based, human. The following applies: 3-day treatment, nontoxic doses. The method, then: This assay was conducted as previously described. […] Permeability was measured by the passage of 40 kDa FITC-Dextran through the inserts. Fluorescence intensity measures were normalized to the DMSO control.

Series [10] deals with children presenting with refractory or recurrent tumors. Particulars: phase I study ref 20; cited from earlier work.

What is called IC50 is the concentration that gives 50% inhibition. With `CNC(=O)c1ccccc1Sc1ccc2c(/C=C/c3ccccn3)n[nH]c2c1` [Axitinib, axitinib], it took 2.3 ± 1.5 µM to reach half-maximal inhibition in series [1] (IC50). Moreover, in [2], the “viability of HDF normal cells” value is “no effect on the viability”. In addition, the “reduction of proliferation of MB cells” value in series [3] is recorded as “more than 80%”. In addition, the “long-term proliferation (CPD) of HD-MB03 cells” value in [4] is reported as “strongly impaired their proliferation”. Moreover, in series [5] (continuous treatment, 5 µM axitinib, compared to etoposide 1 µM), the “long-term proliferation (CPD) of C8-D1A cells” value was “milder effect”. Also, the “proliferation (CPD) of C8-D1A normal cells after removal of the drug” value in series [5] (transient treatment for 48 h, 5 µM) is listed as “able to proliferate again”. In addition, the “size of mixed spheroids” value in series [6] is “strong decrease in the size of spheroids”. Also, in series [7], the “general behavior and growth rate of juvenile rats” value is “no effect on the general behavior and growth rate”. Further, the “doses displaying toxicity in brain endothelial cells” value in [8] is “higher than 1 µM”. Further, the “permeability of the barrier formed by BEC” value in [9] is “permeabilized the barrier”. For the same compound, in series [10], the “maximum tolerated and recommended dose in children” value was 2.4 mg/m^2.
